Patent US8871753B2, “Macrocyclic compounds and their use as kinase inhibitors” (Incyte Corporation, priority 2008, dated 2014)
Counter-ions that a name gives are not always drawn. Like-named read-outs stand apart in the source and are kept apart here.

What was measured:
Assay type in all cases: biochemical
[1] = biological target: T1, human JAK1 (a.a. 837-1142) (Homo sapiens, UniProt P23458); experiment: In vitro JAK kinase assay (HTRF, phosphorylation of a biotinylated peptide), JAK1; conditions: read-out: JAK1 IC50
T1 construct: human JAK1 (a.a. 837-1142); His tag (N); made in house; host or cells: insect cells (baculovirus)
T1 sequence (P23458 849-1154): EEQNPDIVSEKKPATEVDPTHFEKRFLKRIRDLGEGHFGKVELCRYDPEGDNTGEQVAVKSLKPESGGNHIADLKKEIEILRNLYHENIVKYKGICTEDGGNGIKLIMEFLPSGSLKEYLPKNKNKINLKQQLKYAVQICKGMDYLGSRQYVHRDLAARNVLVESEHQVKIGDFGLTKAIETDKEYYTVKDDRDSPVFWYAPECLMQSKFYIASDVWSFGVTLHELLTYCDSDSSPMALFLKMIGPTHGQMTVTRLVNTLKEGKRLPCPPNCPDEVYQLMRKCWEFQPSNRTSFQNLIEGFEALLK
Summary of the method: (§1)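 Kinase reactions ran at room temperature for 1 h with ATP matched per isoform (JAK1 90 μM, JAK2 30 μM, JAK3 3 μM). After an EDTA stop, the phosphorylated biotin-peptide was read by HTRF using Eu-Py20 and SA-APC after 40 min binding.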

[2] = biological target: T2, human JAK2 (a.a. 828-1132) (Homo sapiens, UniProt O60674); experiment: In vitro JAK kinase assay (HTRF, phosphorylation of a biotinylated peptide), JAK2
T2 construct: JAK2 (a.a. 828-1132); His tag (N); made in house; host or cells: insect cells (baculovirus)
T2 sequence (O60674 828-1132): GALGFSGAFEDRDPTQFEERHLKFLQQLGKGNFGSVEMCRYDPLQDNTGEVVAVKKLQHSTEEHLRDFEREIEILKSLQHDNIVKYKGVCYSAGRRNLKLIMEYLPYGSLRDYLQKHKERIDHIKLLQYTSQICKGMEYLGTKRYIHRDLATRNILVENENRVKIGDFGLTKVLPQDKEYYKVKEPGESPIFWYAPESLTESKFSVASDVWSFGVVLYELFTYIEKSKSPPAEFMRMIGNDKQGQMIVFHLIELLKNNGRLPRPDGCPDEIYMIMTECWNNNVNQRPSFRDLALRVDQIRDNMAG
Summary of the method: as §1

[3] = biological target: T3, human JAK3 (a.a. 781-1124) (Homo sapiens, UniProt P52333); experiment: In vitro JAK kinase assay (HTRF, phosphorylation of a biotinylated peptide), JAK3
T3 construct: JAK3 (a.a. 781-1124); His tag (N); made in house; host or cells: insect cells (baculovirus)
T3 sequence (P52333 781-1124): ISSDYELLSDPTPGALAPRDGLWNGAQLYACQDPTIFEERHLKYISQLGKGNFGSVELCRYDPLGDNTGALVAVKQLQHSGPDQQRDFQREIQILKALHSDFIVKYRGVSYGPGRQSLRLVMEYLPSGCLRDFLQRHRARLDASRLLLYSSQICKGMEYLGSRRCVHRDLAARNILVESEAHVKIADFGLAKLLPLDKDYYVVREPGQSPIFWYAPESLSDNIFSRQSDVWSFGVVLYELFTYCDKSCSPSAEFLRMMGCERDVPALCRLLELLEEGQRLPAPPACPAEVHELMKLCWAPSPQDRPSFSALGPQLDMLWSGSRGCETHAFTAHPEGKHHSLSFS
Procedure: The catalytic activity of JAK1, JAK2 or JAK3 was assayed by measuring the phosphorylation of a biotinylated peptide. The phosphorylated peptide was detected by homogenous time resolved fluorescence (HTRF). […] The ATP concentration in the reactions was 90 μM for JAK1, 30 μM for JAK2 and 3 μM for JAK3. Reactions were carried out at room temperature for 1 hr and then stopped with 20 μL 45 mM EDTA, 300 nM SA-APC, 6 nM Eu-Py20 in assay buffer (Perkin Elmer, Boston, Mass.). Binding to the Europium labeled antibody took place for 40 minutes and HTRF signal was measured on a Fusion plate reader (Perkin Elmer, Boston, Mass.).
The catalytic activity of JAK1, JAK2 or JAK3 was assayed by measuring the phosphorylation of a biotinylated peptide. The phosphorylated peptide was detected by homogenous time resolved fluorescence (HTRF). […] Reactions were carried out at room temperature for 1 hr and then stopped with 20 μL 45 mM EDTA, 300 nM SA-APC, 6 nM Eu-Py20 in assay buffer (Perkin Elmer, Boston, Mass.). Binding to the Europium labeled antibody took place for 40 minutes and HTRF signal was measured on a Fusion plate reader (Perkin Elmer, Boston, Mass.).

TYK2 = TYK2 (Homo sapiens, UniProt P29597); experiment: TYK2 kinase inhibition (Table A1)
TYK2, sequence (P29597 whole entry): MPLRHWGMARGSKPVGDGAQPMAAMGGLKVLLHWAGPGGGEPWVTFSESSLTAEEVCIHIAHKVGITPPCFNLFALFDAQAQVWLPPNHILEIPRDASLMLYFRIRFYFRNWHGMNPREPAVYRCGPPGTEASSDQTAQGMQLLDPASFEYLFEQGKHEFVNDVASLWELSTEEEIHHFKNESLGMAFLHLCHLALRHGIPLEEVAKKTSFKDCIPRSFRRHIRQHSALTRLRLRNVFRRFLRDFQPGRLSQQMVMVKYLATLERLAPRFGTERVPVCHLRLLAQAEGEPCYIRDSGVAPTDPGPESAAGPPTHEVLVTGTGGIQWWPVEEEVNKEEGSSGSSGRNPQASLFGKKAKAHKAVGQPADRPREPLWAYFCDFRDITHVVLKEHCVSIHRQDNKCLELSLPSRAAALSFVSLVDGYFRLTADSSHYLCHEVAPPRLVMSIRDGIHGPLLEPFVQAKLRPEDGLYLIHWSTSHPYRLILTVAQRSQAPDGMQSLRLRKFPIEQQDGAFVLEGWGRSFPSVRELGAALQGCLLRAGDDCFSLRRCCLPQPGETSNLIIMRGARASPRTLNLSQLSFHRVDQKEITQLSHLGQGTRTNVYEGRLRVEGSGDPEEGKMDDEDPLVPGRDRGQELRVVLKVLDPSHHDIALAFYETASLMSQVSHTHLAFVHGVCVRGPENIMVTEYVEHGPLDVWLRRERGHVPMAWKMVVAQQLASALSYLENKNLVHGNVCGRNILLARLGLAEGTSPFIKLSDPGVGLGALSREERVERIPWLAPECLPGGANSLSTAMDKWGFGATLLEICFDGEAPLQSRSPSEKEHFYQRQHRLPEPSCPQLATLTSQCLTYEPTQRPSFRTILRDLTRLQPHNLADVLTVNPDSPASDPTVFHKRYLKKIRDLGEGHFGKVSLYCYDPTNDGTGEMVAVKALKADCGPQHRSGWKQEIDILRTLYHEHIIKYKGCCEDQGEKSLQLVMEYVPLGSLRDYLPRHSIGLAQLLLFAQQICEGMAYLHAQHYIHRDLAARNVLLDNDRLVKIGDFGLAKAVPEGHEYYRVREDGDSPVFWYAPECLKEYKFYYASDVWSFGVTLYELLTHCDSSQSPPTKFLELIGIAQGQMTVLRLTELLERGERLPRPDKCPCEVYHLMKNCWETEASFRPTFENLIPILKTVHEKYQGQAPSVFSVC

Structure (SMILES) | IC50 ([1]; Table D1) [nM] | IC50 ([2]; Table D1) [nM] | IC50 ([3]; Table D1) [nM] | IC50 (TYK2; Table D1) [nM] | IC50 [1] [nM] | IC50 [2] [nM] | IC50 [3] [nM] | IC50 (TYK2) [nM] | IC50 ([1]; method AA1 (90 μM ATP) or AA2 (1000 μM ATP), not stated per value) [nM] | IC50 ([2]; method AA1 (30 μM ATP) or AA2 (1000 μM ATP), not stated per value) [nM] | IC50 ([3]; method AA1 (3 μM ATP) or AA2 (1000 μM ATP), not stated per value) [nM]
O=C(C[C@@H]1CCN(c2nc3cccnc3o2)C1)Nc1ccc2cc1CCc1cncc(c1)Nc1ncc(Cl)c(n1)N2 [Example D140, N-[6-Chloro-2,4,8,18,22-pentaazatetracyclo[14.3.1.1(3,7).1(9,13)]docosa-1(20),3(22),4,6,9(21),10,12,16,18-nonaen-12-yl]-2-[(3S)-1-[1,3]oxazolo[5,4-b]pyridin-2-ylpyrrolidin-3-yl]acetamide tris(trifluoroacetate)] | 8.6 | 83 | > 1000 | 226 | – | – | – | – | – | – | –
O=C(CC1CN(C(=O)c2nc[nH]n2)C1)Nc1ccc2cc1CCc1cncc(c1)Nc1ncc(Cl)c(n1)N2 [Example D147, N-[6-Chloro-2,4,8,18,22-pentaazatetracyclo[14.3.1.1(3,7).1(9,13)]docosa-1(20),3(22),4,6,9(21),10,12,16,18-nonaen-12-yl]-2-[1-(1H-1,2,4-triazol-3-ylcarbonyl)azetidin-3-yl]acetamide bis(trifluoroacetate)] | 26 | 85 | > 1000 | 401 | – | – | – | – | – | – | –
O=C(CC1CN(c2nncs2)C1)Nc1ccc2cc1CCc1cncc(c1)Nc1ncc(Cl)c(n1)N2 [Example D151, N-[6-Chloro-2,4,8,18,22-pentaazatetracyclo[14.3.1.1(3,7).1(9,13)]docosa-1(20),3(22),4,6,9(21),10,12,16,18-nonaen-12-yl]-2-[1-(1,3,4-thiadiazol-2-yl)azetidin-3-yl]acetamide tris(trifluoroacetate)] | 76 | > 200 | > 200 | > 200 | – | – | – | – | – | – | –
Cc1ncsc1CCC(=O)Nc1ccc2cc1CCc1cccc(c1)Nc1ncc(Cl)c(n1)N2 [Example C48, N-[6-Chloro-2,4,8,22-tetraazatetracyclo[14.3.1.1(3,7).1(9,13)]docosa-1(20),3(22),4,6,9(21),10,12,16,18-nonaen-12-yl]-3-(4-methyl-1,3-thiazol-5-yl)propanamide trifluoroacetate] | – | – | – | – | 52 | 74 | 1150 | 647 | – | – | –
N#Cc1ccc(C(=O)N2CCN(c3ccc4cc3CCc3cccc(c3)Nc3ncc(Cl)c(n3)N4)CC2)cc1 [Example D95, 4-({4-[6-Chloro-2,4,8,22-tetraazatetracyclo[14.3.1.1(3,7).1(9,13)]docosa-1(20),3(22),4,6,9(21),10,12,16,18-nonaen-12-yl]piperazin-1-yl}carbonyl)benzonitrile bis(trifluoroacetate)] | 25 | 15 | 87 | 106 | – | – | – | – | – | – | –
O=C(Nc1cccc(N2CCOCC2)n1)N1CCC(CCOc2ccc3cc2CCc2cncc(c2)Nc2ncc(Cl)c(n2)N3)CC1 [Example D176, 4-(2-{[6-Chloro-2,4,8,18,22-pentaazatetracyclo[14.3.1.1(3,7).1(9,13)]docosa-1(20),3(22),4,6,9(21),10,12,16,18-nonaen-12-yl]oxy}ethyl)-N-(6-morpholin-4-ylpyridin-2-yl)piperidine-1-carboxamide tris(trifluoroacetate)] | 124 | 208 | > 400 | > 400 | – | – | – | – | – | – | –
O=C(CC1CN(C(=O)c2c[nH]nn2)C1)Nc1ccc2cc1CCc1cncc(c1)Nc1ncc(Cl)c(n1)N2 [Example D148, N-[6-Chloro-2,4,8,18,22-pentaazatetracyclo[14.3.1.1(3,7).1(9,13)]docosa-1(20),3(22),4,6,9(21),10,12,16,18-nonaen-12-yl]-2-[1-(1H-1,2,3-triazol-4-ylcarbonyl)azetidin-3-yl]acetamide bis(trifluoroacetate)] | 15 | 34 | > 1000 | 414 | – | – | – | – | – | – | –
CC(=O)N1CCC[C@@H](CC(=O)Nc2ccc3cc2CCc2cncc(c2)Nc2ncc(Cl)c(n2)N3)C1 [Example D204, 2-[(3S)-1-Acetylpiperidin-3-yl]-N-[6-chloro-2,4,8,18,22-pentaazatetracyclo[14.3.1.1(3,7).1(9,13)]docosa-1(20),3(22),4,6,9(21),10,12,16,18-nonaen-12-yl]acetamide bis(trifluoroacetate)] | 7.2 | 12 | 101 | 12 | – | – | – | – | – | – | –
O=C(COc1ccc2cc1CCc1cncc(c1)Nc1ncc(Cl)c(n1)N2)N1CCN(C(=O)C2CCOC2)CC1 (centres unmarked) [Example D271, 6-Chloro-12-{2-oxo-2-[4-(tetrahydrofuran-3-ylcarbonyl)piperazin-1-yl]ethoxy}-2,4,8,18,22-pentaazatetracyclo[14.3.1.1(3,7).1(9,13)]docosa-1(20),3(22),4,6,9(21),10,12,16,18-nonaene bis(trifluoroacetate)] | 75 | > 400 | > 400 | > 400 | – | – | – | – | – | – | –
O=C(C[C@@H]1CCCN(C(=O)c2ccccc2)C1)Nc1ccc2cc1CCc1cccc(c1)Nc1ncc(Cl)c(n1)N2 [Example D202, 2-[(3S)-1-Benzoylpiperidin-3-yl]-N-[6-chloro-2,4,8,22-tetraazatetracyclo[14.3.1.1(3,7).1(9,13)]docosa-1(20),3(22),4,6,9(21),10,12,16,18-nonaen-12-yl]acetamide trifluoroacetate] | 22 | 12 | 65 | 30 | – | – | – | – | – | – | –
O=C(COc1ccc2cc1CCc1cncc(c1)Nc1ncc(Cl)c(n1)N2)N1CCN(Cc2cccnc2)CC1 [Example D255, 6-Chloro-12-{2-oxo-2-[4-(pyridin-3-ylmethyl)piperazin-1-yl]ethoxy}-2,4,8,18,22-pentaazatetracyclo[14.3.1.1(3,7).1(9,13)]docosa-1(20),3(22),4,6,9(21),10,12,16,18-nonaene tris(trifluoroacetate)] | 90 | 226 | > 400 | > 400 | – | – | – | – | – | – | –
O=C(COc1ccc2cc1CCc1cncc(c1)Nc1ncc(Cl)c(n1)N2)N1CCN(c2noc3ccccc23)CC1 [Example D250, 12-{2-[4-(1,2-Benzisoxazol-3-yl)piperazin-1-yl]-2-oxoethoxy}-6-chloro-2,4,8,18,22-pentaazatetracyclo[14.3.1.1(3,7).1(9,13)]docosa-1(20),3(22),4,6,9(21),10,12,16,18-nonaene tris(trifluoroacetate)] | 43 | 49 | > 400 | > 400 | – | – | – | – | – | – | –
O=C(COc1ccc2cc1CCc1cncc(c1)Nc1ncc(Cl)c(n1)N2)N1CCN(c2ccncc2)CC1 [Example D243, 6-Chloro-12-[2-oxo-2-(4-pyridin-4-ylpiperazin-1-yl)ethoxy]-2,4,8,18,22-pentaazatetracyclo[14.3.1.1(3,7).1(9,13)]docosa-1(20),3(22),4,6,9(21),10,12,16,18-nonaene tris(trifluoroacetate)] | 60 | 300 | > 400 | 326 | – | – | – | – | – | – | –
COc1ccc2cc1Nc1nc(ncc1Cl)Nc1cccc(c1)CC2 [Example A25, 6-Chloro-10-methoxy-2,4,8,22-tetraazatetracyclo[14.3.1.1(3,7).1(9,13)]docosa-1(20),3(22),4,6,9(21),10,12,16,18-nonaene trifluoroacetate] | – | – | – | – | – | – | – | 122 | 38 | 21 | 14
